Data reported in ChEMBL document CHEMBL3826903, “Extended rhodamine photosensitizers for photodynamic therapy of cancer cells” (Bioorg Med Chem, 2016).
pEC50: −log10 of the molar value.

Legend:
[1] = Induction of singlet oxygen assessed as quantum yields for generation of singlet oxygen by luminescence spectroscopy; type: physicochemical
[2] = Therapeutic index, ratio of LD50 for dark toxicity against mouse Colon 26 cells to EC50 for phototoxicity against mouse Colon 26 cells at 1 Jcm'-2 of irradiation with 660 +/- 2 nm nm light; type: cell-based; conditions: read-out: Ratio LD50/EC50
[3] = Dark toxicity against mouse Colon 26 cells assessed as cell survival fraction incubated for 1 hr in dark measured after 48 hrs by SRB assay; type: cell-based; conditions: read-out: LD50
[4] = Drug localization in mitochondria of mouse Colon 26 cells assessed as bright detail similarity scores at 0.2 uM incubated for 15 mins in presence of MTG by flow cytometry; type: ADME; conditions: colon 26, 0.25 h
[5] = Drug localization in mitochondria of human HUT78 cells assessed as bright detail similarity scores at 0.2 uM incubated for 15 mins in presence of MTG by flow cytometry; type: ADME; conditions: hut78, 0.25 h
[6] = system: Colon 26; test: Phototoxicity against mouse Colon 26 cells assessed as cell survival fraction incubated for 1 hr in dark followed by irradiation with 1 J/cm'-2 light from tunable dye laser at 660 +/- 2 nm measured after 48 hrs by SRB assay; type: functional, cell-based; conditions: Colon 26, light or radiation study
[7] = system: Colon 26; test: Dark toxicity against mouse Colon 26 cells assessed as cell survival fraction at 1 uM incubated for 1 hr in dark measured after 48 hrs by SRB assay; type: cell-based; conditions: colon 26, 1 µM
[8] = system: Colon 26; test: Phototoxicity against mouse Colon 26 cells assessed as cell survival fraction incubated for 1 hr in dark followed by irradiation with 10 J/cm'-2 light from tunable dye laser at 690 +/- 2 nm measured after 48 hrs by SRB assay; type: functional, cell-based; conditions: Colon 26, light or radiation study
[9] = system: Colon 26; test: Phototoxicity against mouse Colon 26 cells assessed as cell survival fraction incubated for 1 hr in dark followed by irradiation with 5 J/cm'-2 light from tunable dye laser at 690 +/- 2 nm measured after 48 hrs by SRB assay; type: functional, cell-based; conditions: Colon 26, light or radiation study
[10] = Therapeutic index, ratio of LD50 for dark toxicity against mouse Colon 26 cells to EC50 for phototoxicity against mouse Colon 26 cells at 5 Jcm'-2 of irradiation with 690 +/- 2 nm light; type: cell-based; conditions: read-out: Ratio LD50/EC50
[11] = Therapeutic index, ratio of LD50 for dark toxicity against mouse Colon 26 cells to EC50 for phototoxicity against mouse Colon 26 cells at 10 Jcm'-2 of irradiation with 690 +/- 2 nm light; type: cell-based; conditions: read-out: Ratio LD50/EC50
[12] = system: Colon 26; test: Phototoxicity against mouse Colon 26 cells assessed as cell survival fraction incubated for 1 hr in dark followed by irradiation with 1 J/cm'-2 light from tunable dye laser at 642 +/- 2 nm measured after 48 hrs by SRB assay; type: functional, cell-based; conditions: Colon 26, light or radiation study
[13] = Therapeutic index, ratio of LD50 for dark toxicity against mouse Colon 26 cells to EC50 for phototoxicity against mouse Colon 26 cells at 5 Jcm'-2 of irradiation with 700 +/- 2 nm light; type: cell-based; conditions: read-out: Ratio LD50/EC50
[14] = Therapeutic index, ratio of LD50 for dark toxicity against mouse Colon 26 cells to EC50 for phototoxicity against mouse Colon 26 cells at 10 Jcm'-2 of irradiation with 700 +/- 2 nm light; type: cell-based; conditions: read-out: Ratio LD50/EC50
[15] = system: Colon 26; test: Phototoxicity against mouse Colon 26 cells assessed as cell survival fraction incubated for 1 hr in dark followed by irradiation with 10 J/cm'-2 light from tunable dye laser at 700 +/- 2 nm measured after 48 hrs by SRB assay; type: functional, cell-based; conditions: Colon 26, light or radiation study
[16] = system: Colon 26; test: Phototoxicity against mouse Colon 26 cells assessed as cell survival fraction incubated for 1 hr in dark followed by irradiation with 5 J/cm'-2 light from tunable dye laser at 700 +/- 2 nm measured after 48 hrs by SRB assay; type: functional, cell-based; conditions: Colon 26, light or radiation study

SMILES	Singlet oxygen quantum yield [1]	selectivity ratio [2]	CC50 at 1 h [3] [nM]	Drug uptake [4]	Drug uptake [5]	pEC50 [6]	Activity [7]	pEC50 [8]	pEC50 [9]	selectivity ratio [10]	selectivity ratio [11]	pEC50 [12]	selectivity ratio [13]	selectivity ratio [14]	pEC50 [15]	pEC50 [16]
CN(C)c1ccc2c(-c3ccccc3)c3ccc4cc(=[N+](C)C)ccc4c3[se]c2c1.F[P-](F)(F)(F)(F)F	0.65	> 15	> 1000	1.38	2.458	7.19	Non-toxic	–	–	–	–	–	–	–	–	–
CN(C)c1ccc2c(-c3ccccc3)c3cc4ccc(=[N+](C)C)cc4cc3sc2c1.F[P-](F)(F)(F)(F)F	< 0.05	–	460	1.2	2.153	–	Toxic	7.05	6.85	3.3	5.1	–	–	–	–	–
CN(C)c1ccc2c(-c3ccccc3)c3ccc4cc(=[N+](C)C)ccc4c3sc2c1.F[P-](F)(F)(F)(F)F	0.15	–	–	1.77	2.82	–	Non-toxic	–	–	–	–	6.55	–	–	–	–
CN(C)c1ccc2c(-c3ccccc3)c3cc4ccc(=[N+](C)C)cc4cc3[se]c2c1.F[P-](F)(F)(F)(F)F	< 0.05	–	2000	0.7204	0.683	–	Toxic	–	–	–	–	–	8.3	11	6.74	6.62
